# According to patent US7803930B2, “Antisense modulation of apolipoprotein B-expression” (Isis Pharmaceuticals, Inc., priority 2002, dated 2010):
# Experiments:
# [1] = tested on: mouse apolipoprotein B protein; assay: High fat fed mice (Example 51): serum apolipoprotein B protein, immunoblot; assay type: in vivo; conditions: high fat fed C57Bl/6 mice; 50 mg/kg i.p. twice weekly
# Source text: Furthermore, at 1, 2, 3 and 4 weeks of treatment, a inverse correlation between inhibition of target mRNA and cholesterol levels (total, HDL and LDL) is observed, with cholesterol levels lowering as percent inhibition of apolipoprotein B mRNA becomes greater. Serum samples were subjected to immunoblot analysis using an antibody to detect mouse apolipoprotein B protein (Gladstone Institute, San Francisco, Calif.).
# [2] = tested on: mouse apolipoprotein B mRNA; assay: High fat fed mice (Example 65): mouse apolipoprotein B mRNA and serum cholesterol levels; assay type: in vivo
# Description: Male C57Bl/6 mice were divided into the following groups, consisting of 5 animals each: (1) mice on a lean diet, injected with saline (lean control); (2) mice on a high fat diet; (3) mice on a high fat diet injected with 50 mg/kg of the control oligonucleotide 141923 (SEQ ID NO: 858); (4) mice on a high fat diet given 20 mg/kg atorvastatin calcium (Lipitor®, Pfizer Inc.); (5) mice on a high fat diet injected with 10, 25 or 50 mg/kg ISIS 147764 (SEQ ID NO: 109). Saline and oligonucleotide treatments were administered intraperitoneally twice weekly for 6 weeks. Atorvastatin was administered daily for 6 weeks. At study termination, liver samples were isolated from each animal and RNA was isolated for Northern blot qualitative assessment, DNA microarray and quantitative real-time PCR. Northern blot assessment and quantitative real-time PCR were performed as described by other examples herein.
# Mouse apolipoprotein B mRNA and serum cholesterol levels, measured as described herein, were evaluated to confirm antisense inhibition by ISIS 147764 and ISIS 147483. […] The 50 mg/kg dose of ISIS 147483 increased ALT and AST levels.
# [3] = Long-term study in lean Cynomolgous monkeys (Example 64): toxicity (steatosis, APTT, histology, kidney); assay type: in vivo, Cynomolgous monkey
# Description: Male and female Cynomologous monkeys are treated with 2, 4 or 12 mg/kg of ISIS 301012 intravenously or 2 or 20 mg/kg subcutaneously at a frequency of every two days for the first week, and every 4 days thereafter, for 1 and 3 month treatment periods. Saline-treated animals serve as controls. Each treatment group includes 2 to 3 animals of each sex.
# At a one month interval and at the 3 month study termination, the animals are sacrificed and evaluated for target expression in liver, lipid levels in serum and indicators of toxicity. Liver samples are procured, RNA is isolated and apolipoprotein B mRNA expression is measured by real-time PCR as described in other examples herein. Serum lipids, including total cholesterol, LDL-cholesterol, HDL-cholesterol and triglycerides, are evaluated by routine clinical analysis using an Olympus Clinical Analyzer (Olympus America Inc., Melville, N.Y.). Ratios of LDL-cholesterol to HDL-cholesterol and total cholesterol to HDL-cholesterol are also calculated. Analyses of serum ALT and AST, inflammatory infiltrates in tissue and basophilic granules in tissue provide an assessment of toxicities related to the treatment. Hepatic steatosis, or accumulation of lipids in the liver, is assessed by routine histological analysis with oil red 0 stain and measurement of liver tissue triglycerides using a Triglyceride GPO Assay (Sigma-Aldrich, St. Louis, Mo.).
# Hepatic steatosis, or accumulation of lipids in the liver, was not observed following 4 weeks of treatment with the doses indicated.
# [4] = Long-term study in lean CD-1 mice (Example 63): serum lipids and indicators of toxicity (ALT, AST, histology, steatosis); assay type: in vivo, mouse; conditions: one month
# Description: In accordance with the present invention, the toxicity of ISIS 301012 (SEQ ID NO: 247) is investigated in a long-term, 3 month study in mice. Two-month old male and female CD-1 mice (Charles River Laboratories, Wilmington, Mass.) are dosed with 2, 5, 12.5, 25 or 50 mg/kg of ISIS 301012 twice per week for first week, and every 4 days thereafter. The mice are maintained on a standard rodent diet. Saline and control oligonucleotide animals serve as controls and are injected on the same schedule. Each treatment group contains 6 to 10 mice of each sex, and each treatment group is duplicated, one group for a 1 month study termination, the other for a 3 month study termination. After the 1 or 3 month treatment periods, the mice are sacrificed and evaluated for target expression in liver, lipid levels in serum and indicators of toxicity. Liver samples are procured, RNA is isolated and apolipoprotein B mRNA expression is measured by real-time PCR as described in other examples herein. Serum lipids, including total cholesterol, LDL-cholesterol, HDL-cholesterol and triglycerides, are evaluated by routine clinical analysis using an Olympus Clinical Analyzer (Olympus America Inc., Melville, N.Y.). Ratios of LDL-cholesterol to HDL-cholesterol and total cholesterol to HDL-cholesterol are also calculated. Analyses of serum ALT and AST, inflammatory infiltrates in tissue and basophilic granules in tissue provide an assessment of toxicities related to the treatment. Hepatic steatosis, or accumulation of lipids in the liver, is assessed by routine histological analysis with oil red 0 stain and measurement of liver tissue triglycerides using a Triglyceride GPO Assay (Sigma-Aldrich, St. Louis, Mo.).
# The toxicity study also includes groups of animals allowed to recover following cessation of oligonucleotide treatment. Both male and female CD-1 mice (Charles River Laboratories, Wilmington, Mass.) are treated with 5, 10, 50 mg/kg of ISIS 301012 twice per week for the first week and every 4 days thereafter. Saline and, control oligonucleotide injected animals serve as controls. Each treatment group includes 6 animals per sex. After 3 months of treatment, animals remain untreated for an additional 3 months, after which they are sacrificed. The same parameters are evaluated as in the mice sacrificed immediately after 3 months of treatment.
# Additionally, the expected dose-response toxicities were observed. ALT and AST levels, measured by routine clinical procedures on an Olympus Clinical Analyzer (Olympus America Inc., Melville, N.Y.), are increased in mice treated with 25 or 50 mg/kg of ISIS 301012. Tissues were prepared for analysis by routine histological procedures.
Substance,apolipoprotein B protein in serum (immunoblot) [1],mouse apolipoprotein B mRNA and serum cholesterol levels [2],functional changes in kidney [3],Hepatic steatosis ([3]; 4 weeks of treatment),dose-related histological findings ([3]; 12 and 20 mg/kg),"transient increase in activated partial thromboplastin time (APTT) ([3]; 12 and 20 mg/kg, during the first 4 hours)",ALT and AST levels ([4]; 25 or 50 mg/kg),doses at which basophilic granules in liver and kidney tissue were observed [4],doses at which mild lymphohistiocytic infiltrates were observed in various tissues [4],steatosis (oil red O staining) [4]
"GTCCCTGAAGATGTCAATGC (2'-MOE gapmer, further chemistry not given here) [ISIS 147764]",markedly reduced within 48 hours,lowered in a dose-dependent manner,–,–,–,–,–,–,–,–
"ISIS 301012: SEQ ID NO: 247, antisense oligonucleotide targeted to human apolipoprotein B (antisense GCCTCAGTCTGCTTCGCACC; chemistry not given here)",–,–,No functional changes,not observed,basophilic granules in the liver and kidney,1.2-1.3 fold,increased,above 12.5 mg/kg,above 12.5 mg/kg,no steatosis
